≈ marks a conversion by molar mass, not a printed value. Where two headings read alike, the source gives them in different places. Numbered stars: 1 amine (or outer) side, 2 acyl side, 3 side chain; on linkers, the order of the positions; unused ones are H or OH. Bridge positions count the residues as written; N and C are the ends. Peptide text beside a SMILES is read from it. * marks the point of attachment. C20 diacid = O=C(O)CCCCCCCCCCCCCCCCCCC(=O)*; γGlu = O=C(O)[C@H](CCC(=O)[*:2])N[*:1]
Experiments:
rat calcitonin receptor = molecular target: T1, rat calcitonin receptor (Rattus norvegicus, UniProt P32214); assay: ASSAY (VIII) binding to the rat calcitonin receptor; details: Table 7, read-out: rCTR bind IC50
T1 construct: expressed in transfected cells; host or cells: BHK tk'ts 13 (transient, FuGENE 6), membranes
T1 sequence (P32214 25-479 isoform P32214-2 limits assumed): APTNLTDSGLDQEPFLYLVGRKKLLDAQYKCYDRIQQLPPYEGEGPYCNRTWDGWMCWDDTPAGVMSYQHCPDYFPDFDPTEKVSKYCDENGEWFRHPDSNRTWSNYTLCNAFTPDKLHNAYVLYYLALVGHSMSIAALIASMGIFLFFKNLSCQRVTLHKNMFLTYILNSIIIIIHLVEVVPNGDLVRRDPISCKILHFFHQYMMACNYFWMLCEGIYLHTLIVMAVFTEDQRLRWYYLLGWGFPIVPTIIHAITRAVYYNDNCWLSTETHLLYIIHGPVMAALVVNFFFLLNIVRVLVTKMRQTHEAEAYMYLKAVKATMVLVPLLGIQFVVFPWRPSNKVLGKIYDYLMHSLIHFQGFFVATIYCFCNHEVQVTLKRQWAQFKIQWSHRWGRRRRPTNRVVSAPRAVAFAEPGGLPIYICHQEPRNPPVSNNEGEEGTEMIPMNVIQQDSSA
Outline: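 Cell membranes for binding came from BHK tk′ts 13 cells harvested approximately 48 hours after transient transfection with the rat receptor.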

[1] = molecular target: T2, rat amylin receptor (rat calcitonin receptor + rat RAMP 3) (Rattus norvegicus, UniProt P32214+Q9JJ73); assay: ASSAY (VI) binding to the rat amylin receptor; details: for IC50: binding to rat amylin receptor, read-out: rAmylin-R bind IC50
T2 construct: expressed in transfected cells; host or cells: BHK tk'ts 13 (transient, FuGENE 6), membranes
T2 sequence (P32214 25-479 isoform P32214-2 limits assumed): T1 sequence (P32214 25-479 isoform P32214-2 limits assumed)
T2 sequence (Q9JJ73 23-147 partner): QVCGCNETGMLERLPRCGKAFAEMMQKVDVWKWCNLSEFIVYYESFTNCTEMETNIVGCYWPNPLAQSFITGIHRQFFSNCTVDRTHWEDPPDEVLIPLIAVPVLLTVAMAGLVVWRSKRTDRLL
Outline: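 Membranes for this rat amylin receptor binding assay came from BHK tk′ts 13 cells. The cells were transiently transfected with rat calcitonin receptor using the FuGENE® 6 reagent from Roche, as the manufacturer recommends. The cells were collected approximately 48 hours after transfection, and membranes were then prepared.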

[2] = molecular target: T3, human amylin receptor (membranes from Amylin 3(a)/CRE-luc cells) (Homo sapiens, UniProt O60896+P30988); assay: ASSAY (V) binding to the human amylin receptor (SPA, 125I-rat amylin);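 further: competition binding of cell membranes (35 ng/µL) mixed with SPA beads in 384-well plates at 40 µL total volume, read by scintillation counting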
T3 construct: expressed in transfected cells
T3 sequence (P30988 25-474): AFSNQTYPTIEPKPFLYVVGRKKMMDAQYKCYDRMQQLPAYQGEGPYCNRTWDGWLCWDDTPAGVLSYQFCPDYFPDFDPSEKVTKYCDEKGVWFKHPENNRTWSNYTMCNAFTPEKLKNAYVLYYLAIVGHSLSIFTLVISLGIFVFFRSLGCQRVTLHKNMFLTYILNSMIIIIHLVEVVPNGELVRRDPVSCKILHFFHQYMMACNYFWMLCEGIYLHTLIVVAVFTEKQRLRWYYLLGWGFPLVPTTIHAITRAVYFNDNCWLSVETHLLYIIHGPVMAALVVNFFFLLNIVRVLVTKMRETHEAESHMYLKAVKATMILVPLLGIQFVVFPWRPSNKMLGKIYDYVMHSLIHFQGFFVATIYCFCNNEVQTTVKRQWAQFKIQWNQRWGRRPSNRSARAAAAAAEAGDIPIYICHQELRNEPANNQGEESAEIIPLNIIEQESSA
T3 sequence (O60896 24-148 partner): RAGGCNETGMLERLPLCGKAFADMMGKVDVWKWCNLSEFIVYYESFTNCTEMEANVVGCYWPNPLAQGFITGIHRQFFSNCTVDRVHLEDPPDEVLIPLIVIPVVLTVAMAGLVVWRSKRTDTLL

[3] = molecular target: T4, human amylin 3(a) receptor (human calcitonin receptor + RAMP-3) in BHK570 cells (Homo sapiens, UniProt O60896+P30988); assay: ASSAY (II)a functional assay, human amylin receptor (CRE luciferase); type: cell-based
T4 construct: expressed in transfected cells
Outline: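 Receptor activation is measured as cAMP-driven CRE-luciferase expression in BHK cells expressing the calcitonin receptor, with RAMP-3 co-expressed to form the amylin 3(a) receptor. Cells are exposed to compound for 3 hours at 37° C, and luciferase is then quantified by luminescence.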

[4] = ASSAY (IV) determination of solubility; type: physicochemical
Outline: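 Samples of polypeptide, prepared from a water stock at […] and diluted 1:1 into 100 mM buffers spanning pH 3.0 to 8.0, stood 18 hours at room temperature. Polypeptide concentration was then determined by UPLC following centrifugation.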

[5] = Table 7, rat binding selectivity, rCTR IC50 / rAmylin-R IC50
[6] = Table 7a (preferred compounds), rat binding selectivity, rCTR IC50 / rAmylin-R IC50
[7] = ratio of rCTR bind IC50 to rAmylin-R bind IC50
[8] = Table 5, selectivity, hCTR bind IC50 / hAmylin-R bind IC50
[9] = Table 5a, selectivity, hCTR bind IC50 / hAmylin-R bind IC50
[10] = Table 7, human binding selectivity, included for comparison
[11] = Table 7a (preferred compounds), human binding selectivity, included for comparison
[12] = ratio of human calcitonin receptor binding IC50 to human amylin receptor binding IC50
[13] = hCTR funct. EC50 divided by hAmylin-R funct. EC50
[14] = hCTR funct. EC50 over hAmylin-R funct. EC50
[15] = human functional selectivity: hCTR funct. EC50 / hAmylin-R funct. EC50
[16] = bistrispropane buffer, pH 6.5, read-out: Solubility pH 6.5 Concentration
[17] = bistrispropane buffer, pH 7.5, read-out: Solubility pH 7.5 Concentration
[18] = bistrispropane buffer, pH 6.0, read-out: Solubility pH 6.0 Concentration
[19] = bistrispropane buffer, pH 7.0, read-out: Solubility pH 7.0 Concentration
[20] = bistrispropane buffer, pH 8.0, read-out: Solubility pH 8.0 Concentration
[21] = glycylglycine buffer, pH 3.0, read-out: Solubility pH 3.0 Concentration
[22] = glycylglycine buffer, pH 4.0, read-out: Solubility pH 4.0 Concentration
[23] = glycylglycine buffer, pH 5.0, read-out: Solubility pH 5.0 Concentration

IC50 (rat calcitonin receptor) [nM]	IC50 ([1]; Table 7) [nM]	Ratio rCT/rAmylin binding [1, 5]	Ratio rCT/rAmylin binding [1, 6]	Ratio rCT/rAmylin binding [1, 7]	Ratio hCT/hAmylin binding [2, 8]	Ratio hCT/hAmylin binding [2, 9]	Ratio hCT/hAmylin binding [2, 10]	Ratio hCT/hAmylin binding [2, 11]	Ratio hCT/hAmylin binding [2, 12]	Ratio hCT/hAmylin funct. [3, 13]	Ratio hCT/hAmylin funct. [3, 14]	Ratio hCT/hAmylin funct. [3, 15]	solubility at 18 h [4, 16] [µM]	solubility at 18 h [4, 17] [µM]	solubility at 18 h [4, 18] [µM]	solubility at 18 h [4, 19] [µM]	solubility at 18 h [4, 20] [µM]	solubility at 18 h [4, 21] [µM]	solubility at 18 h [4, 22] [µM]	SMILES	further results
69.2	1.5	46.2	46.2	46.2	31.1	31.1	31.1	31.1	31.1	16.4	16.4	16.4	≥ 200	≥ 200	≥ 200	≥ 200	≥ 200	≥ 200	≥ 200	CC[C@H](C)[C@H](NC(=O)[C@H](C)NC(=O)CNC(=O)[C@H](Cc1ccccc1)NC(=O)[C@H](CC(N)=O)NC(=O)[C@@H]1CCCN1C(=O)[C@H](CO)NC(=O)[C@H](CO)NC(=O)[C@H](Cc1c[nH]cn1)NC(=O)[C@H](CCCNC(=N)N)NC(=O)[C@H](CC(C)C)NC(=O)[C@H](Cc1ccccc1)NC(=O)[C@H](CC(N)=O)NC(=O)[C@H](C)NC(=O)[C@H](CC(C)C)NC(=O)[C@H](CCCNC(=N)N)NC(=O)[C@H](CCC(N)=O)NC(=O)[C@@H](NC(=O)[C@H](C)NC(=O)[C@@H]1CSSC[C@H](NC(=O)[C@H](CCCCN)NC(=O)CC[C@H](NC(=O)CCCCCCCCCCCCCCCCCCC(=O)O)C(=O)O)C(=O)N[C@@H](CC(N)=O)C(=O)N[C@@H]([C@@H](C)O)C(=O)N[C@@H](C)C(=O)N[C@@H]([C@@H](C)O)C(=O)N1)[C@@H](C)O)C(=O)N1CCC[C@H]1C(=O)N[C@@H](CO)C(=O)N[C@@H](CO)C(=O)N[C@H](C(=O)N[C@@H](CC(N)=O)C(=O)N[C@H](C(=O)NCC(=O)N[C@@H](Cc1c[nH]cn1)C(=O)N[C@@H](CC(N)=O)C(=O)N[C@H](C(=O)N[C@@H](Cc1ccc(O)cc1)C(N)=O)[C@@H](C)O)C(C)C)[C@@H](C)O [Example 40]	Ratio hCT/hAmylin binding ([2]; Table 5b, selectivity, hCTR bind IC50 / hAmylin-R bind IC50): 31.1; Ratio hCT/hAmylin binding ([2]; Table 5c, selectivity, hCTR bind IC50 / hAmylin-R bind IC50): 31.1; solubility at 18 h [4, 23]: ≥ 200 µM
62.5	2.19	28.5	28.5	28.5	12.3	12.3	12.3	12.3	12.3	3.8	3.8	3.8	≥ 200	≥ 200	195 (≈ 860 µg/mL)	≥ 200	≥ 200	≥ 200	≥ 200	CC[C@H](C)[C@H](NC(=O)[C@H](C)NC(=O)CNC(=O)[C@H](Cc1ccccc1)NC(=O)[C@H](CC(N)=O)NC(=O)[C@@H]1CCCN1C(=O)[C@H](CO)NC(=O)[C@H](CO)NC(=O)[C@H](Cc1c[nH]cn1)NC(=O)[C@H](CCCNC(=N)N)NC(=O)[C@H](CC(C)C)NC(=O)[C@H](Cc1ccccc1)NC(=O)[C@H](CCC(=O)O)NC(=O)[C@H](C)NC(=O)[C@H](CC(C)C)NC(=O)[C@H](CCCNC(=N)N)NC(=O)[C@H](CCC(N)=O)NC(=O)[C@@H](NC(=O)[C@H](C)NC(=O)[C@@H]1CSSC[C@H](NC(=O)[C@H](CCCCN)NC(=O)CC[C@H](NC(=O)CCCCCCCCCCCCCCCCCCC(=O)O)C(=O)O)C(=O)N[C@@H](CC(N)=O)C(=O)N[C@@H]([C@@H](C)O)C(=O)N[C@@H](C)C(=O)N[C@@H]([C@@H](C)O)C(=O)N1)[C@@H](C)O)C(=O)N1CCC[C@H]1C(=O)N[C@@H](CO)C(=O)N[C@@H](CO)C(=O)N[C@H](C(=O)N[C@@H](CC(N)=O)C(=O)N[C@H](C(=O)NCC(=O)N[C@@H](CO)C(=O)N[C@@H](CCC(=O)O)C(=O)N[C@H](C(=O)N[C@@H](Cc1ccc(O)cc1)C(N)=O)[C@@H](C)O)C(C)C)[C@@H](C)O [Example 22] ({C20 diacid-γGlu}-KCNTATCATQRLAEFLRHSSPNFGAIPSSTNVGSETY-NH2; disulfide 2-7)	Ratio hCT/hAmylin funct. ([3]; hCTR funct. EC50 / hAmylin-R funct. EC50): 3.8; solubility at 18 h [4, 23]: ≥ 200 µM

Source: patent US9023789B2, “Amylin analogs and pharmaceutical compositions thereof” (Novo Nordisk A/S, priority 2012, dated 2015)
